Data on 40 compounds can be found in patent US5340833A, “Urokinase inhibitors” (Eisai Co., Ltd., priority 1992, dated 1994).

What all share (assay type): biochemical
One assay deals with T1, human plasmin (Homo sapiens, UniProt P00747).
T1 construct: plasmin, the potent general protease produced by cleavage of plasminogen by either urokinase or tPA; purchased American Diagnostica
Description: Plasmin Assay. Conditions: for PLM/uPA ratio: ratio with respect to urokinase indirect plasminogen-linked IC50, larger = greater specificity for urokinase; for IC50: read-out: PLASMIN IC50. As to the method: (v) A chromogenic pNA assay for plasmin, the potent general protease produced by cleavage of plasminogen by either urokinase or tPA. Although urokinase initiates cellular invasiveness by generating plasmin, the additional importance of plasmin in tPA-mediated fibrinolysis dictates that plasmin itself should be free from inhibition by urokinase inhibitors designed as anti-invasiveness agents. […] All other assay conditions, as well as methods of color quantitation, were carried out as described above for the urokinase direct assay.

The next assay addresses T2, urokinase (Homo sapiens, UniProt P00749).
T2 construct: human high molecular weight urokinase; purchased American Diagnostica, Greenwich, Conn
Nature of the assay: Urokinase Indirect (Plasminogen-Linked) Assay. Conditions: Table 3 column 4, simple number, unit inferred; read-out: uPA Indirect (plasminogen-linked) IC50.

The target of the next assay is T3, human two-chain tPA (Homo sapiens, UniProt P00750).
T3 construct: human two-chain tPA was substituted for urokinase; purchased American Diagnostica
Nature of the assay: tPA Indirect (Plasminogen-Linked) Assay (tPA Direct Assay result where lower). The following applies: for tPA/UPA ratio: ratio with respect to urokinase indirect plasminogen-linked IC50, larger = greater specificity for urokinase; for IC50: tPA Indirect Plasminogen-Linked Assay, in rare cases direct assay result if lower, read-out: tPA IC50. An excerpt: (iv) Both direct and plasminogen-linked pNA assays for tPA, the other mammalian plasminogen activator and the key initiator of blood clot dissolution or fibrinolysis. Since urokinase and tPA share an absolute specificity for the same peptide bond in plasminogen, urokinase inhibitors designed to block cellular invasiveness must be highly specific for urokinase over tPA in order to avoid serious thrombotic side effects secondary to undesired blockage of normal fibrinolysis. […] Spectrozyme tPA®, American Diagnostica) was substituted for urokinase substrate.

Assay [1] addresses T4, human high molecular weight urokinase (Homo sapiens, UniProt P00749).
T4 construct: human high molecular weight urokinase; purchased American Diagnostica, Greenwich, Conn
Description: Urokinase Direct Assay. The following applies: read-out: uPA Direct: percentage of residual urokinase activity relative to inhibitor-free controls; heading: uPA Direct: percentage of residual urokinase activity relative to inhibitor-free controls; inhibitor concentration of 1 mM. As to the method:
(i) A direct chromogenic assay in which urokinase cleaves a synthetic tripeptide p-nitroanilide (pNA) urokinase substrate.
Incubations were carried out at 37° C. for approximately 2 hours or until adequate yellow color developed. Color was quantitated by measuring absorbance at 405 nm (A405) using a Titertek Multiskan MCC/340 MK II microtiter plate spectrophotometer.

One may read the IC50 as the point on the concentration scale where inhibition reaches its midpoint.

Where a name gives a salt, the structure may show the parent alone.

T1 sequence (P00747 581-810 limits assumed): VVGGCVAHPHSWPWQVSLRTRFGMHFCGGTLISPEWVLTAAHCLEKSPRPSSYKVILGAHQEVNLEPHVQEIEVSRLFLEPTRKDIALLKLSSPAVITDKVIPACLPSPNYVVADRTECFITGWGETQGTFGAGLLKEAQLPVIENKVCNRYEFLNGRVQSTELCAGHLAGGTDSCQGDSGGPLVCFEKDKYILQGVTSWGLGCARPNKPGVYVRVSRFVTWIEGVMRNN
T1 sequence (P00747 97-580 limits assumed): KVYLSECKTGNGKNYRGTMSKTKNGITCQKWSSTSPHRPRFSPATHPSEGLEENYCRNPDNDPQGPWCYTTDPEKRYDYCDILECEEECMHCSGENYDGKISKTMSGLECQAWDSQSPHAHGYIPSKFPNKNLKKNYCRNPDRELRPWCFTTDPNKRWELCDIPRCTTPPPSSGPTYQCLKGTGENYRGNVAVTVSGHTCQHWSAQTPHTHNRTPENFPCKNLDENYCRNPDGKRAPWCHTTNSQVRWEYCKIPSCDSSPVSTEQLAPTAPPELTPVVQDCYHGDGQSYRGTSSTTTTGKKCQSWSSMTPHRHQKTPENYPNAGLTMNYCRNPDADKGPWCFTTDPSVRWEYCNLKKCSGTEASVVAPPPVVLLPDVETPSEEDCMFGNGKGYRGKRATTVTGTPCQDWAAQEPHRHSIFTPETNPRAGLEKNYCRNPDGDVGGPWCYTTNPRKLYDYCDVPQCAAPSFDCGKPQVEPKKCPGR
T3 sequence (P00750 311-562 limits assumed): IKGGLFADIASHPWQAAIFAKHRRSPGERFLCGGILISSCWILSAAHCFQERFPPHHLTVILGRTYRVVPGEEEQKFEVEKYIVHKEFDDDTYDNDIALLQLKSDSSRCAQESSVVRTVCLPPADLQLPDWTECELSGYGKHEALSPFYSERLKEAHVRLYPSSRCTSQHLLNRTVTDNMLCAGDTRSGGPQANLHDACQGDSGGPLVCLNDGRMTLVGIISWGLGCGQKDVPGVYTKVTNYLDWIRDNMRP
T3 sequence (P00750 36-310 limits assumed): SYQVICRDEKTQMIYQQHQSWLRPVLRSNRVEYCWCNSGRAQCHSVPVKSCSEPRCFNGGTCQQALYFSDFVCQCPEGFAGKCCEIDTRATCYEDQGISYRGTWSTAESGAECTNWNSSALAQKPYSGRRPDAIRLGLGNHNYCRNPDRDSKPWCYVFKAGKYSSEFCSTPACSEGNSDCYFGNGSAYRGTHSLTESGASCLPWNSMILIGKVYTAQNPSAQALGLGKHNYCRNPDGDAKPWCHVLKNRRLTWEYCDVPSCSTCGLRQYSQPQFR

`CCc1cccc2sc(C(=N)N)cc12.Cl` [Compound 7, 4-Ethylbenzo[b]thiophene-2-carboxamidine hydrochloride]: at human plasmin, the PLM/uPA ratio was found to be 610 and the IC50 turned out to be 427 µM. Further, the IC50 at urokinase turned out to be 0.7 µM. Besides, on human two-chain tPA, the tPA/UPA ratio came out at 263 and the IC50 amounted to 184 µM.

In the case of `CCCc1cccc2sc(C(=N)N)cc12.Cl` [Compound 9, 4-Propylbenzo[b]thiophene-2-carboxamidine hydrochloride], on human plasmin, the PLM/uPA ratio is given as 902 and the IC50 came to 595 µM. Further, on urokinase, the IC50 came to 0.66 µM. On human two-chain tPA, the tPA/UPA ratio came out at 250 and the IC50 came to 165 µM.

In the case of `N=C(N)c1cc2cc(CCO)ccc2s1` [Compound 113, 5-(2-Hydroxyethyl)benzo[b]thiophene-2-carboxamidine hydrochloride], the residual urokinase activity at 1000 µM in assay [1] turned out to be 2.9%.

As to `C=C(C)c1ccc2sc(C(=N)N)cc2c1` [Compound 115, 5-(1-Methylethenyl)benzo[b]thiophene-2-carboxamidine hydrochloride], the residual urokinase activity at 1000 µM in assay [1] came to 1.2%.

Consider `CC=Cc1ccc2sc(C(=N)N)cc2c1` [Compound 116, 5-(E/Z-Prop-1-enyl)benzo[b]thiophene-2-carboxamidine hydrochloride], for which, in assay [1], the residual urokinase activity at 1000 µM is 1.6%.

For `CCC=Cc1ccc2sc(C(=N)N)cc2c1` [Compound 117, 5-(E/Z-But-1-enyl)benzo[b]thiophene-2-carboxamidine hydrochloride], in assay [1], the residual urokinase activity at 1000 µM was found to be 1.1%.

`CCC(C)=Cc1ccc2sc(C(=N)N)cc2c1` [Compound 118, 5-(E/Z-2-Methylbut-1-enyl)benzo[b]thiophene-2-carboxamidine hydrochloride]: the residual urokinase activity at 1000 µM in assay [1] was determined as 1.2%.

On to `CC(C)C=Cc1ccc2sc(C(=N)N)cc2c1` [Compound 119, 5-(E/Z-3-Methylbut-1-enyl)benzo[b]thiophene-2-carboxamidine hydrochloride], for which the residual urokinase activity at 1000 µM in assay [1] worked out at 4.9%.

Take `C#Cc1ccc2sc(C(=N)N)cc2c1` [Compound 123, 5-(Ethynyl)benzo[b]thiophene-2-carboxamidine hydrochloride]: the residual urokinase activity at 1000 µM in assay [1] came out at 2.5%.

Turning to `N=C(N)c1cc2cc(-c3cccnc3)ccc2s1` [Compound 125, 5-(Pyrid-3-yl)benzo[b]thiophene-2-carboxamidine hydrochloride], the residual urokinase activity at 1000 µM in assay [1] came out at 3.6%.

Turning to `N=C(N)c1cc2cc(-c3cccs3)ccc2s1` [Compound 127, 5-(Thien-2-yl)benzo[b]thiophene-2-carboxamidine hydrochloride], the residual urokinase activity at 1000 µM in assay [1] came to 1.1%.

For the compound `N=C(N)c1cc2cc(-c3cc4ccccc4s3)ccc2s1` [Compound 128, 5-(Benzo[b]thien-2-yl)benzo[b]thiophene-2-carboxamidine hydrochloride], the IC50 on urokinase was determined as 0.94 µM.

Take `N=C(N)c1cc2cc(C(F)(F)F)ccc2s1` [Compound 129, 5-(Trifluoromethyl)benzo[b]thiophene-2-carboxamidine hydrochloride]: the residual urokinase activity at 1000 µM in assay [1] stood at 8.2%.

With `N=C(N)c1cc2cc(C=O)ccc2s1` [Compound 130, 5-Formylbenzo[b]thiophene-2-carboxamidine hydrochloride], the residual urokinase activity at 1000 µM in assay [1] was determined as 6.8%.

In the case of `N=C(N)c1cc2cc(CO)ccc2s1` [Compound 131, 5-(Hydroxymethyl)benzo[b]thiophene-2-carboxamidine hydrochloride], the residual urokinase activity at 1000 µM in assay [1] was found to be 6.3%.

For the compound `Cc1ccc2sc(C(=N)N)cc2c1Br` [Compound 202, 4-Bromo-5-methylbenzo[b]thiophene-2-carboxamidine hydrochloride], the residual urokinase activity at 1000 µM in assay [1] was 3%.

As for `N=C(N)c1cc2c(Cl)c(I)ccc2s1` [Compound 203, 4-Chloro-5-iodobenzo[b]thiophene-2-carboxamidine hydrochloride], in assay [1], the residual urokinase activity at 1000 µM stood at 3.5%.

Take `N=C(N)c1cc2c(ccc3ccccc32)s1` [Compound 205, Naphtho[2,1-b]thiophene-2-carboxamidine hydrochloride]: the residual urokinase activity at 1000 µM in assay [1] stood at 0.27%.

For the compound `N=C(N)c1ccc(/C=C/c2cc3ccc4sc(C(=N)N)cc4c3s2)cc1` [Compound 209, 5-[E-2-(4-Carboxamidinophenyl)ethenyl]thieno[4,5-b]benzo[b]thiophene-2-carboxamidine bis-hydrochloride], the IC50 on urokinase is 0.27 µM.

Regarding `N=C(N)c1cc2ccc(I)cc2s1` [Compound 301, 6-Iodobenzo[b]thiophene-2-carboxamidine hydrochloride], in assay [1], the residual urokinase activity at 1000 µM was 13.7%.

On to `N=C(N)c1cc2cccc(I)c2s1` [Compound 302, 7-Iodobenzo[b]thiophene-2-carboxamidine hydrochloride], for which, in assay [1], the residual urokinase activity at 1000 µM was 10.8%.

Regarding `Cc1ccc2cc(C(=N)N)sc2c1` [Compound 303, 6-Methylbenzo[b]thiophene-2-carboxamidine hydrochloride], the residual urokinase activity at 1000 µM in assay [1] was 12%.

For the compound `Cc1c(C(=N)N)sc2ccccc12` [Compound 304, 3-Methylbenzo[b]thiophene-2-carboxamidine hydrochloride], in assay [1], the residual urokinase activity at 1000 µM amounted to 75%.

For `N=C(N)c1sc2ccccc2c1O` [Compound 305, 3-Hydroxybenzo[b]thiophene-2-carboxamidine hydrochloride], the residual urokinase activity at 1000 µM in assay [1] is more than 90%.

Consider `N=C(N)c1sc2ccccc2c1N` [Compound 306, 3-Aminobenzo[b]thiophene-2-carboxamidine hydrochloride], for which the residual urokinase activity at 1000 µM in assay [1] was 41%.

For the compound `N=C(N)c1cc2c(F)cc(Br)cc2s1` [Compound 308, 4-Fluoro-6-bromobenzo[b]thiophene-2-carboxamidine hydrochloride], in assay [1], the residual urokinase activity at 1000 µM was 14.5%.

Consider `COc1ccc(Br)c2sc(C(=N)N)cc12` [Compound 309, 7-Bromo-4-methoxybenzo[b]thiophene-2-carboxamidine hydrochloride], for which the residual urokinase activity at 1000 µM in assay [1] was 18%.

In the case of `COc1ccc(F)c2cc(C(=N)N)sc12` [Compound 310, 4-Fluoro-7-methoxybenzo[b]thiophene-2-carboxamidine hydrochloride], the residual urokinase activity at 1000 µM in assay [1] is more than 90%.

Regarding `COc1c(Br)cc(Br)c2sc(C(=N)N)cc12` [Compound 311, 5,7-Dibromo-4-methoxybenzo[b]thiophene-2-carboxamidine hydrochloride], the residual urokinase activity at 1000 µM in assay [1] turned out to be 18%.

Take `N=C(N)c1cc2cc3ccccc3cc2s1` [Compound 313, Naphtho[2,3-b]thiophene-2-carboxamidine hydrochloride]: in assay [1], the residual urokinase activity at 1000 µM worked out at 11%.

Regarding `N=C(N)c1ccc2sccc2c1` [Compound 314, Benzo[b]thiophene-5-carboxamidine hydrochloride], the residual urokinase activity at 1000 µM in assay [1] came out at 43%.

As for `N=C(N)c1ccc2ccsc2c1` [Compound 315, Benzo[b]thiophene-6-carboxamidine hydrochloride], the residual urokinase activity at 1000 µM in assay [1] came to 21%.

Take `N=C(N)c1csc2ccccc12` [Compound 316, Benzo[b]thiophene-3-carboxamidine hydrochloride]: the residual urokinase activity at 1000 µM in assay [1] was 80%.

`N=C(N)c1cccc2sccc12` [Compound 317, Benzo[b]thiophene-4-carboxamidine hydrochloride]: in assay [1], the residual urokinase activity at 1000 µM is 90%.

As to `N=C(N)c1cc2cccnc2s1` [Compound 318, Pyrido[2,3-b]thiophene-2-carboxamidine hydrochloride], the residual urokinase activity at 1000 µM in assay [1] worked out at 55%.

For the compound `N=C(N)Nc1cc2ccccc2s1` [Compound 319, 2-Guanidinobenzo[b]thiophene hydrochloride], the residual urokinase activity at 1000 µM in assay [1] is more than 90%.

As to `N=C(N)NC(=O)c1cc2ccccc2s1` [Compound 320, N-Amidino benzo[b]thiophene-2-carboxamide hydrochloride], the residual urokinase activity at 1000 µM in assay [1] is 84%.

Consider `Cl.N=C(N)c1cc2ccsc2s1` [Compound 321, Thieno[2,3-b]thiophene-2-carboxamidine hydrochloride], for which the residual urokinase activity at 1000 µM in assay [1] turned out to be 4.1%. Moreover, the inhibition at 1000 µM on human plasmin (1 mM inhibitor, read-out: PLASMIN activity observed relative to inhibitor-free controls) was 88%; on human two-chain tPA (1 mM inhibitor, read-out: tPA activity observed relative to inhibitor-free controls) it was 74%. Besides, the PLM/uPA ratio on human plasmin is not below 1000. Moreover, the tPA/UPA ratio at human two-chain tPA is not below 500.

For `N=C(N)c1cc2sccc2s1` [Compound 322, Thieno[3,2-b]thiophene-2-carboxamidine hydrochloride], in assay [1], the residual urokinase activity at 1000 µM is 2.7%.

`N=C(N)c1cc2cscc2s1` [Compound 323, Thieno[3,4-b]thiophene-2-carboxamidine hydrochloride]: the residual urokinase activity at 1000 µM in assay [1] turned out to be 5.3%.
